Data on 5 molecules can be found in article PMC10671313, “First Gallium and Indium Crystal Structures of Curcuminoid Homoleptic Complexes: All-Different Ligand Stereochemistry and Cytotoxic Potential” (International Journal of Molecular Sciences, 2023).

By IC50 is commonly meant the concentration needed to halve the response being measured.

Entries after “also recorded” stand apart in the source; their conditions may differ. Where two headings read alike, the source gives them in different places.

Format in all cases: cell-based
In data set [1] the test system is U251 (human glioblastoma). Put plainly: SRB cytotoxicity assay, U251 cells. As to the method:
(§1) The cytotoxicity of all compounds was assessed against several cancer cell lines, namely U251 (human glioblastoma), PC-3 (human prostate adenocarcinoma), K562 (human chronic myelogenous leukemia), HCT-15 (human colon adenocarcinoma), MCF-7 (human mammary adenocarcinoma), SKLU-1 (human lung adenocarcinoma), and COS-7 (non-tumoral monkey kidney). These cell lines were obtained from the U.S. National Cancer Institute (NCI) (Montgomery County, MD, USA). The cells were cultured in RPMI-1640 medium supplemented with 10% fetal bovine serum, 2 mM L-glutamine, 10,000 units/mL penicillin G sodium, 10,000 μg/mL streptomycin sulfate, 25 μg/mL amphotericin B (Invitrogen/Gibco^TM, Thermo Fisher Scientific, Waltham, MA, USA), and 1% non-essential amino acids (Gibco). They were maintained at a temperature of 37 °C in a humidified atmosphere containing 5% CO2. The experiment’s cell viability exceeded 95%, as determined using trypan blue staining. To evaluate the cytotoxicity on human tumor cells, the protein-binding dye sulforhodamine B (SRB) was employed in a microculture assay, following the protocols established by the NCI [52, 53, 54]. The results were reported as IC50 values, representing the inhibitory concentration required for 50% inhibition. The IC50 values were determined using the Monks protocol, which involved plotting dose-response curves for each compound and estimating the concentration (IC50) at which a 50% inhibition was observed through non-linear regression analysis.
Background: In SRB staining, fixed cells bind dye roughly in proportion to their protein.

Data set [2] has as its system PC-3 (human prostate adenocarcinoma). Put plainly: SRB cytotoxicity assay, PC-3 cells. As to the method: as §1
Data set [3] concerns HCT-15 (human colon adenocarcinoma). The data set can be described thus: SRB cytotoxicity assay, HCT-15 cells. As to the method: as §1
For data set [4], the system named is MCF-7 (human mammary adenocarcinoma). Put plainly: SRB cytotoxicity assay, MCF-7 cells. As to the method:
as §1

Data set [5] relates to SKLU-1 (human lung adenocarcinoma). Put plainly: SRB cytotoxicity assay, SKLU-1 cells. As to the method: as §1
The test system of data set [6] is K562 (human chronic myelogenous leukemia). The data set can be described thus: SRB cytotoxicity assay, K562 cells. As to the method:
as §1

Data set [7] has as its system COS-7 (non-tumoral monkey kidney). Put plainly: SRB cytotoxicity assay, COS-7 non-tumoral cells. As to the method: as §1
[8] abbreviates: U251 cell line, SRB assay, read-out: IC50 U251.
Where [9] appears, read: PC-3 cell line, SRB assay, read-out: IC50 PC-3.
[10] abbreviates: HCT15 cell line, SRB assay, read-out: IC50 HCT15.
Setting [11] is: MCF7 cell line, SRB assay, read-out: IC50 MCF7.
Setting [12] is: SKLU-1 cell line, SRB assay, read-out: IC50 SKLU-1.
Setting [13] is: K562 cell line, SRB assay, read-out: IC50 K562.
[14] abbreviates: non-cancerous COS-7 cells, SRB assay, read-out: IC50 COS-7.

As for Dimethoxycurcumin indium [(DiMeOC)3-In], the IC50 in data set [1] (setting [8]) stood at 6.3 ± 0.6 µM; in data set [2] (setting [9]), 7.6 ± 0.05 µM; in data set [3] (setting [10]) it was 7.9 ± 0.2 µM; in data set [4] (setting [11]), 9.7 ± 0.4 µM; in data set [5] (setting [12]), 6.2 ± 0.4 µM.

As to Curcumin [reference compound], the IC50 was 20.5 ± 1.7 µM in data set [1] (setting [8]); 22.5 ± 1.9 µM in data set [2] (setting [9]); 16.4 ± 0.04 µM in data set [6] (setting [13]); 21.3 ± 0.9 µM in data set [3] (setting [10]); 18.4 ± 0.9 µM in data set [4] (setting [11]); 12.9 ± 0.7 µM in data set [5] (setting [12]). The IC50 in data set [7] (setting [14]) worked out at 21.8 ± 2.1 µM.

In the case of `COc1ccc(/C=C/C(=O)/C=C(O)/C=C/c2ccc(OC)c(OC)c2)cc1OC` [DiMeOC, Dimethoxycurcumin], the IC50 is 2.02 ± 0.07 µM in data set [1] (Homo sapiens, U-251, read-out: IC50 U251); 5.9 ± 0.6 µM in data set [2] (Homo sapiens, PC-3, read-out: IC50 PC-3); 6.5 ± 1.4 µM in data set [6] (Homo sapiens, K562, read-out: IC50 K562); 6.6 ± 0.3 µM in data set [3] (Homo sapiens, HCT-15, read-out: IC50 HCT15); 6.9 ± 1 µM in data set [4] (Homo sapiens, MCF7, read-out: IC50 MCF7); 7.2 ± 0.4 µM in data set [5] (Homo sapiens, SK-LU-1, read-out: IC50 SKLU-1). The IC50 in data set [7] (Primates, COS-7, read-out: IC50 COS-7) was determined as 2.02 ± 0.07 µM.

On to “Dimethoxycurcumin gallium [(DiMeOC)2-Ga]”, for which, in data set [1] (COS-7 vs U251, times less cytotoxic), the “Selectivity: IC50 in COS-7 compared to U251” value turned out to be 4 times. Moreover, the IC50 in data set [1] (setting [8]) turned out to be 5.3 ± 0.1 µM; in data set [2] (setting [9]), 10.5 ± 0.3 µM; in data set [6] (setting [13]) it was 2 ± 0.2 µM; in data set [4] (setting [11]), 15.5 ± 0.4 µM; in data set [7] (setting [14]), 23.2 ± 1.9 µM. Besides, the “Selectivity: IC50 in COS-7 compared to PC-3” value in data set [2] (COS-7 vs PC-3, times less cytotoxic) is 2 times. Besides, in data set [6] (COS-7 vs K562, times less cytotoxic), the “Selectivity: IC50 in COS-7 compared to K562” value is on record as 11 times. For the same molecule, in data set [7] (lower toxicity than cisplatin (non-cancerous COS-7)), the “Toxicity relative to cisplatin” value was “three times lesser toxicity than cisplatin; also recorded: up to three times lower toxicity than cisplatin”.

As for `N.N.[Cl][Pt][Cl]` [Cisplatin, reference compound], the IC50 in data set [3] (setting [10]) worked out at 10 ± 0.9 µM.
